{"source": "patent US20190291112A1", "about": "“DROPLET MICROFLUIDICS FOR DRUG SCREENING” (University of Macau, priority 2018, published 2019)", "tested_on": "NAS1605 primary nasopharyngeal tumor sample", "assay": "On chip drug screening of primary tumor dissociated cells", "assay_type": "cell-based, human", "conditions": "NAS1605, 16-24 h, normalized to mock treatment", "procedure": "All human studies were conducted with the approval of the Panel on Research Ethics of University of Macau and the Research Ethics Committee of Kiang Wu Hospital, according to the Materials Transfer Agreement between University of Macau and Kiang Wu Hospital. Informed consent for sampling and publication without identifiable information was obtained from all participating patients. All patient sample names were double encoded by the university and the hospital, respectively, to remove any trace of patient identity during sample collection, transfer, processing and analysis. Primary tumors were obtained from surgery conducted at Kiang Wu Hospital immediately after tumor resection. Tumor tissue was dissociated as previously described. Briefly, tumor tissue was first cut into small pieces by a scalpel, then transferred to a 50 mL conical tube containing 5 mL Digestion Buffer I (DMEM/F12 medium containing 5% FBS, 5 μg/mL insulin, 500 ng/mL hydrocortisone, 10 ng/mL epidermal growth factor (EGF), 20 ng/mL cholera toxin, 300 U/mL collagenase III and 100 U/mL hyaluronidase), and digested for no more than 12 h with shaking at 100 rpm in humidified incubator at 37° C. supplemented with 5% CO2. After spinning down at 400 g at ambient temperature for 2 min, the cells were resuspended with 2 mL Digestion Buffer II (DMEM/F12 medium containing 5 mg/mL dispase II and 0.1 mg/mL deoxyribonuclease I), followed by digestion at ambient temperature for 5 min. The cells were then washed with 10 mL HBSS (Life Technologies, USA). […]\nBriefly, cells at final concentrations of 1-2×10^6 cells per mL were aliquoted in 0.2 mL PCR tubes, then mixed with corresponding drugs and 2 μM ethidium homodimer 1 (Life Technologies, USA) by manual pipetting. […] Brightfield and red fluorescence images (Ex. 531/40 nm, Em. 593/40 nm) were taken under 10× magnification (Life Technologies EVOS FL Imaging System, USA).\nFor on chip assays, the number of cells was counted in brightfield and red fluorescence images from each well respectively. Cell viability was calculated as follows: […]"}
{"smiles": "CC(C)C[C@H](NC(=O)[C@H](Cc1ccccc1)NC(=O)c1cnccn1)B(O)O", "note": "[bortezomib]", "values": [{"measurement": "dose dependence of normalized cell viability", "value": "dose-dependent reduction of cell viability"}]}
